We go through six molecules from patent publication US12024721B2, “Method of differentiating human pluripotent stem cells to podocytes” (Wisconsin Alumni Research Foundation, priority 2017, dated 2024).

In assay [1] the test system is hPSCs. Description: Primitive streak induction of hPSCs by Wnt activation (brachyury immunofluorescence / flow cytometry). The class given is cell-based, human. On the technique in general: Flow cytometry measures light scatter and fluorescence of single cells or particles in a stream.
Method: Thus, as a first step toward differentiating hPSCs into podocytes, induced hPSCs (iPSCs) were seeded on a Matrigel®-coated surface at a density of ˜2×10^4 cells/cm^2 in mTeSR®1. After 3 days of expansion to a density of 6×10^4 cells/cm^2, the hPSCs were treated with 6 μM CHIR99201 for 48 hr in serum-free and albumin-free podocyte medium 1 (PM1: DMEM/F12, 1% MEM-NEAA, 0.5% GlutaMAX, 0.1 mM β-mercaptoethanol) (FIG. 1A). […] After 48 hr CHIR99201 treatment in PM1, the medium was switched to serum-free podocyte medium 2 (PM2: human endothelial serum-free medium (hESFM), 2% B-27®) and cultured to day 16. The kinetics of primitive streak induction were assessed by immunofluorescence and qRT-PCR. […] At day 0, differentiation was initiated by treating cells with 6 μM CHIR99021 (Selleckchem) in podocyte medium 1 (PM1): DMEM/Ham's F12 (Thermo Fisher), 100×MEM nonessential amino acids (Thermo Fisher), 200× GlutaMAX (Thermo Fisher), and 0.1 mM β-mercaptoethanol (Sigma) for 2 days. After 48 hr, medium was changed to podocyte medium 2 (PM2): human Endothelial Serum-Free Medium (hESFM) (Thermo Fisher) supplemented with 50× B-27®. […] Cells were stained with primary and secondary antibodies diluted in 0.5% BSA plus 0.1% Triton-X 100 as described.^34 Data were collected on a FACS Caliber flow cytometer (Beckton Dickinson) and analyzed using FlowJo®. […]
Assay [2] concerns hPSCs. To be noted: 6 μM, undifferentiated hPSCs, serum-free and albumin-free medium, after 24 hours; cited from earlier work.
In assay [3] the test system is BMP-induced SMAD1/5/8 phosphorylation. Description: Phosphorylated SMAD Western blot after dorsomorphin treatment of differentiating cells. The class given is cell-based, human. As to conditions: added from days 1-3 of differentiation; P-SMAD at day 3; 0 to 10 μM tested.
Method: Singularized IMR90-4 hPSCs were seeded on 12-well plates coated with Matrigel®, Synthemax® or vitronectin and expanded for 3 days in mTeSR®1. Podocyte differentiation was initiated with treatment using 6 μM CHIR (CHIR99021) for 48 h in PM1 followed by treatment with different combinations of 0.1 μM or 1 μM RA, 50 ng/mL BMP7 and 50 ng/mL FGF2 from day 2 to day 6 in PM2. […] (D, E) Expression of phosphorylated SMAD was assessed by Western blot after cells were treated with dorsomorphin (0 μM to 10 μM) from day 1 to day 3 or from day 3 to day 4. […] Data were collected from three independent replicates and are plotted as mean±SEM. *p<0.05. ***p<0.001. […] Cells were dissociated with Accutase® and rinsed with PBS twice before being lysed with RIPA (ROCKLAND) in the presence of 1% Halt Protease and Phosphatase Inhibitor Cocktail (Pierce). Protein concentration was determined by a BCA assay kit (Thermo Fisher) according to manufacturer's instructions. Samples containing 30 μg of total protein were loaded onto pre-cast 10% Tris-Glycine SDS/PAGE gels (Invitrogen) under denaturing conditions and transferred to a nitrocellulose membrane. After blocking with 5% non-fat milk in TBST, the membrane was incubated with primary antibody (Table 1) overnight at 4° C. […]
The next assay has as its system IMR90-4 hPSCs. The assay can be described thus: WT1 expression at day 6 by Western blot after treatment with BMP7, RA, FGF2 from day 2 to day 6. As to conditions: treatment day 2 to day 6 in PM2. The class given is cell-based, human. How it is done:
FIGS. 3A-3L Wnt signaling activation alone is sufficient to differentiate hPSCs into nephron progenitor cells. (A) Schematic of podocyte differentiation factor identification. Singularized IMR90-4 hPSCs were seeded on 12-well plates coated with Matrigel®, Synthemax® or vitronectin and expanded for 3 days in mTeSR®1. Podocyte differentiation was initiated with treatment using 6 μM CHIR (CHIR99021) for 48 h in PM1 followed by treatment with different combinations of 0.1 μM or 1 μM RA, 50 ng/mL BMP7 and 50 ng/mL FGF2 from day 2 to day 6 in PM2. (B) Cells at day 6 were assessed by Western blot for the expression level of WT1. (C) Expression level was quantified via Image J. The expression was first normalized to β-actin and then compared to WT1 expression in the absence of FGF2, RA and BMP7. (D, E) Expression of phosphorylated SMAD was assessed by Western blot after cells were treated with dorsomorphin (0 μM to 10 μM) from day 1 to day 3 or from day 3 to day 4. (F, G) Expression of BMP7 at day 1 and day 2 was verified by immunofluorescence and Western blot of cell lysate. (H, I) Cells were differentiated in the presence or absence of 1 μM dorsomorphin treatment from day 1 to day 3 and at day 16 were assessed for expression of PAX2 and WT1 by flow cytometry. Data were collected from three independent replicates and are plotted as mean±SEM. *p<0.05. ***p<0.001. […]
For orientation: Immunoblotting shows a protein as a band on a membrane.

Assay [4] relates to IMR90-4 iPSC-derived podocytes. The assay can be described thus: Apoptosis assay: dead cells by trypan blue after TGF-β1. The class given is cell-based, human. To be noted: 5 or 50 ng/mL, 24 hr, day 16 podocytes; control 2%. The procedure:
(§1) At day 16, cells were treated with 500 ng/mL Ang II for 6 hr and phalloidin staining was used to assess changes in cytoskeletal structure. White arrows indicate the cells with peripheral F-actin. (B) More than 200 cells over 15 images were analyzed and the percentage of cells with peripherally-organized actin was calculated for control and Ang II-treated cells. Data are presented as mean percentage±SEM of three independent experiments over 15 images. Scale bars, 100 μm. (C) At day 16, cells were treated with 5 ng/mL and 50 ng/mL TGF-β1 for 24 hr. Detached cells were collected from the medium and combined with Accutase®-dissociated cells from the substrate. Cells were treated with trypan blue and the numbers of cells incorporating and excluding trypan blue were counted on a hemocytometer. Percentage of dead cells was calculated as the number of cells that incorporated trypan blue divided by the total cell number. […]
(§2) Podocytes uptake albumin via endocytosis and degrade albumin in lysosomes^52,53. We assessed the ability of day 16 iPSC-derived podocytes to endocytose Alexa Fluor 555-labeled albumin in a temperature-dependent manner. […]
(§3) Differentiated podocytes at day 16 were treated with 500 ng/ml Ang II for 6 hr or […] TGF-β1 for 24 hr. […] The cells treated with TGF-β1 after 24 hr were assessed by counting dead cells with trypan blue exclusion.

Assay [5] deals with IMR90-4 iPSC-derived podocytes. Description: Contractility assay: actin reorganization (phalloidin staining) after Ang II. The class given is cell-based, human. As to conditions: 500 ng/mL, 6 hr, day 16 podocytes; control about 20%. The procedure:
as §1, §2, §3

As to `Cc1c[nH]c(-c2cnc(NCCNc3ccc(C#N)cn3)nc2-c2ccc(Cl)cc2Cl)n1` [CHIR99021], the “ability alone to direct hPSC lines into intermediate mesoderm, nephron progenitors and mature podocytes” value in the assay with hPSCs [1] (6 μM alone, podocyte permissive medium, three different hPSC lines) is reported as “sufficient”. For the same molecule, in the assay with hPSCs [1] (6 μM, 24 hr treatment, PM1, iPSCs on Matrigel), the “cells expressing the primitive streak marker brachyury (positive population)” value is listed as approximately 100%. In addition, the “population expressing primitive streak markers (prior study)” value with hPSCs [2] was “uniform population of cells expressing primitive streak markers”.
As to `c1cc(-c2cnn3cc(-c4ccc(OCCN5CCCCC5)cc4)cnc23)ccn1` [dorsomorphin], the “dorsomorphin concentration at which SMAD phosphorylation was completely inhibited” value in assay [3] was “higher than 5 μM”.
Take “FGF2: fibroblast growth factor, exogenous growth factor”: the “effect on WT1 expression in the hPSC-derived podocytes” value with IMR90-4 hPSCs is recorded as “diminished”.
Regarding “TGF-β1: induces cell death in primary and immortalized podocytes”, in assay [4], the “percentage of dead cells (trypan blue uptake)” value is given as 15%.
Consider “angiotensin II [Ang II, induces podocyte damage by altering cytoskeletal structure and inducing contractility]”, for which, in assay [5], the “percentage of cells with peripheral actin” value is reported as “Over 50%”.

B1: BMP7: bone morphogenetic protein, exogenous growth factor (protein, UniProt P18075 293-431, looked up)
Bone morphogenetic protein 7: STGSKQRSQNRSKTPKNQEALRMANVAENSSSDQRQACKKHELYVSFRDLGWQDWIIAPEGYAAYYCEGECAFPLNSYMNATNHAIVQTLVHFINPETVPKPCCAPTQLNAISVLYFDDSSNVILKKYRNMVVRACGCH
Regarding B1, the “effect on WT1 expression in the hPSC-derived podocytes” value in the assay with IMR90-4 hPSCs is “diminished”.
